As a reminder, the EC50 is the concentration needed to bring the measured effect to its halfway point.

The values that follow come from patent US10954221B2, “GLP-1R agonists and uses thereof” (QILU REGOR THERAPEUTICS INC., priority 2019, dated 2021).

Assay [1] addresses T1, GLP1R (Homo sapiens, UniProt P43220). Kind of assay: β-Arrestin-mediated GLP1R internalization assay (PathHunter U2OS cells). It is filed as cell-based. The note with it: averaged Bmax where applicable, Percentage of Control GLP-1 (7-37), top 10 μM, 180 min. On the set-up: host or cells: PathHunter engineered U2OS cells. The text has this:
A similar assay can also be used to assess the extent of signal attenuation due to GLP-1R internalization (the Internalization Assay). In this assay, activated GLP1R Internalization cells were engineered to co-express an untagged GLP1R, Enzyme Acceptor (EA) tagged β-Arrestin, and a ProLink™ (PK) tag localized to the endosomes. Activation of the GLP1R induces β-Arrestin recruitment, which leads to internalization of the Receptor/Arrestin-EA complex in PK-tagged endosomes. This forces complementation of the two β-galactosidase enzyme fragments (EA and PK) to form a functional enzyme that hydrolyzes substrate to generate a chemiluminescent signal.
Frozen cells were quickly thawed and 10 mL of cell plating medium (provided by the kit) was added to thawed cells. Cells were stored in a 37° C. incubator and kept for approximately 48 hours until ready for the assay.
Reference and test compounds were dissolved in 100% DMSO. […] 5 μL of this solution was added to 20 μL cell medium in assay plate for a final top concentration of 10 μM. Plates were incubated at 37° C. for 180 min.
Following 180 min incubation, detection reagents were made up by combining 1 part Galacton Star Substrate with 5 parts Emerald II™ Solution, and 19 parts of PathHunter Cell Assay Buffer, respectively. 12.5 μL detection reagent was added to each well. The plates were then incubated at room temperature for 60 min. Plates were then read on Envision for 0.1 sec/well.
EC50 determinations were made from agonist dose-response curves analyzed with a curve fitting program using a 4-parameter logistic dose response equation.
Target sequence in this assay (P43220 24-463): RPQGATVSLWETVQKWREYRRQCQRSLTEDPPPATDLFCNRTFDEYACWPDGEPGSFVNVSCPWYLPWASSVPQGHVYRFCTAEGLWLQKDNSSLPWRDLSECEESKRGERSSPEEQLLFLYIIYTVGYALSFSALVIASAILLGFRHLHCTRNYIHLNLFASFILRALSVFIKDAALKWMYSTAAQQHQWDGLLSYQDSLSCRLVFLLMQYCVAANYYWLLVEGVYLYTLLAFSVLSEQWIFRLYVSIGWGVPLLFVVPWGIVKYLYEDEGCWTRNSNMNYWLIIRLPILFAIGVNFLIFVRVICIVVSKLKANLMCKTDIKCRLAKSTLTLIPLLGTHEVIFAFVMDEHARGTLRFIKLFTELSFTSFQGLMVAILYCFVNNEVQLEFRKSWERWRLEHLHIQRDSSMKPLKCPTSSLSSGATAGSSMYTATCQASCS
Target sequence in this assay (P32121 whole entry partner, the tested form may be a part): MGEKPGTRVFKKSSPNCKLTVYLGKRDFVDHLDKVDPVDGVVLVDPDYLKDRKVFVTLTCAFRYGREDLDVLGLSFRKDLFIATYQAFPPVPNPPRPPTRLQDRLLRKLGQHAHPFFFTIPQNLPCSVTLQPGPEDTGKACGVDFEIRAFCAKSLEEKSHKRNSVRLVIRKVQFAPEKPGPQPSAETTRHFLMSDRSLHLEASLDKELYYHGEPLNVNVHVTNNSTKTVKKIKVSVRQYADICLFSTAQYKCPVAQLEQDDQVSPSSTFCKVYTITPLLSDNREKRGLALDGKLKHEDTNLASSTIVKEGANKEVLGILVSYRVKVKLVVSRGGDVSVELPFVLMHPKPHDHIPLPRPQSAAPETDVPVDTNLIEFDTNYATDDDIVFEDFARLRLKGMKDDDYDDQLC

In assay [2] the target is T1, GLP1R. Kind of assay: GLP1R cAMP assay (HTRF), HEK293/GLP-1R/CRE/Luc, Clone 4. For orientation: Changes in cAMP serve as a functional read-out for many G protein-coupled receptors.
Target sequence in this assay (P43220 24-463): as the sequence (P43220 24-463) above
Assay [3] deals with T1, GLP1R. Also noted: Emax: dose or concentration left out as unconfirmed. To be noted: for Emax: CHO-K1, […], read-out: β-arrestin recruitment Bmax (%). For orientation: Activated receptors often draw arrestin, which recruitment assays turn into a signal.
Target sequence in this assay (P43220 24-463): as above
Target sequence in this assay (P32121 whole entry partner, the tested form may be a part): as the sequence (P32121 whole entry partner, the tested form may be a part) above

Consider `O=C(O)c1ccc2nc(Cc3ccc(-c4cccc(OCc5ccc(Cl)cc5F)c4)cc3F)n(C[C@@H]3CCO3)c2c1` [Compound 89, (S)-2-((3′-((4-chloro-2-fluorobenzyl)oxy)-3-fluoro-[1,1′-biphenyl]-4-yl)methyl)-1-(oxetan-2-ylmethyl)-1H-benzo[d]imidazole-6-carboxylic acid], for which the “β-arrestin internalization Bmax (POC)” value in assay [1] was determined as 20.0 POC. Moreover, in assay [2], the EC50 was < 15 nM. In addition, in assay [3], the Emax turned out to be 25.3%.

Take `O=C(O)c1ccc2nc(Cc3ccc(-c4nc(OCc5ccc(Cl)cc5F)ncc4F)c(F)c3)n(C[C@@H]3CCO3)c2c1` [Compound 82, (S)-2-(4-(2-(4-chloro-2-fluorobenzyloxy)-5-fluoropyrimidin-4-yl)-3-fluorobenzyl)-1-(oxetan-2-ylmethyl)-1H-benzo[d]imidazole-6-carboxylic acid]: the “β-arrestin internalization Bmax (POC)” value in assay [1] worked out at 13.8 POC. For the same molecule, the EC50 in assay [2] was < 15 nM. Also, the Emax in assay [3] came to 20.1%.

As for `O=C(O)c1ccc2nc(Cc3ccc(-c4nc(OCc5ccc(Cl)cc5F)ncc4F)cc3F)n(C[C@@H]3CCO3)c2c1` [Compound 91, (S)-2-(4-(2-(4-chloro-2-fluorobenzyloxy)-5-fluoropyrimidin-4-yl)-2-fluorobenzyl)-1-(oxetan-2-ylmethyl)-1H-benzo[d]imidazole-6-carboxylic acid], the “β-arrestin internalization Bmax (POC)” value in assay [1] came to 21.6 POC. The EC50 in assay [2] is < 15 nM. For the same molecule, in assay [3], the Emax was 35.8%.

On to `O=C(O)c1ccc2nc(Cc3ccc(-c4cccc(OCc5ccc(Cl)cc5F)n4)nc3)n(C[C@@H]3CCO3)c2c1` [Compound 100, (S)-2-((6′-(4-chloro-2-fluorobenzyloxy)-2,2′-bipyridin-5-yl)methyl)-1-(oxetan-2-ylmethyl)-1H-benzo[d]imidazole-6-carboxylic acid], for which the “β-arrestin internalization Bmax (POC)” value in assay [1] was 0.881 POC. In addition, the EC50 in assay [2] is > 1000 nM. In addition, the Emax in assay [3] came to 0.971%.

Regarding `N#Cc1ccc(COc2cccc(-c3ccc(Cc4nc5ccc(C(=O)O)cc5n4C[C@@H]4CCO4)cc3F)n2)c(F)c1` [Compound 75, (S)-2-(4-(6-(4-cyano-2-fluorobenzyloxy)pyridin-2-yl)-3-fluorobenzyl)-1-(oxetan-2-ylmethyl)-1H-benzo[d]imidazole-6-carboxylic acid], in assay [1], the “β-arrestin internalization Bmax (POC)” value amounted to 20.8 ± 10.2 POC. In assay [2], the 50% effective concentration (EC50) is < 15 nM. The Emax in assay [3] was 30.4 ± 1.15%.

As to `O=C(O)c1ccc2nc(Cc3ccc(-c4ccnc(OCc5ccc(Cl)cc5F)n4)c(F)c3)n(C[C@@H]3CCO3)c2c1` [Compound 80, (S)-2-(4-(2-((4-chloro-2-fluorobenzyl)oxy)pyrimidin-4-yl)-3-fluorobenzyl)-1-(oxetan-2-ylmethyl)-1H-benzo[d]imidazole-6-carboxylic acid], the “β-arrestin internalization Bmax (POC)” value in assay [1] turned out to be 21.2 POC. Also, the EC50 in assay [2] is < 15 nM. Moreover, the Emax in assay [3] was 31.6%.

`N#Cc1ccc(COc2ncc(F)c(-c3ccc(Cc4nc5ccc(C(=O)O)nc5n4C[C@@H]4CCO4)c(F)c3)n2)c(F)c1` [Compound 291, (S)-2-(4-(2-((4-cyano-2-fluorobenzyl)oxy)-5-fluoropyrimidin-4-yl)-2-fluorobenzyl)-3-(oxetan-2-ylmethyl)-3H-imidazo[4,5-b]pyridine-5-carboxylic acid]: in assay [1], the “β-arrestin internalization Bmax (POC)” value worked out at 22.8 ± 0.142 POC. Further, the EC50 in assay [2] is < 15 nM. Also, the Emax in assay [3] stood at 29.4 ± 6.84%.

In the case of `O=C(O)c1ccc2nc(Cc3ccc(-c4cccc(OCc5ccc(Cl)cc5F)n4)c(F)c3)n(C[C@@H]3CCO3)c2c1` [Compound 74, (S)-2-(4-(6-((4-chloro-2-fluorobenzyl)oxy)pyridin-2-yl)-3-fluorobenzyl)-1-(oxetan-2-ylmethyl)-1H-benzo[d]imidazole-6-carboxylic acid], the “β-arrestin internalization Bmax (POC)” value in assay [1] is on record as 17.0 POC. Moreover, in assay [2], the EC50 was < 15 nM. Moreover, the “β-arrestin recruitment Bmax (%)” value in assay [3] (partial maximum relative effect at the highest concentration tested (top 10 μM), relative to Bmax of GLP-1 (7-37), PathHunter CHO-K1 GLP1R β-Arrestin cells) is 32.1%.

With `O=C(O)c1ccc2nc(Cc3ccc(-c4ccc(F)c(OCc5ccc(F)cc5F)n4)c(F)c3)n(C[C@@H]3CCO3)c2n1` [Compound 267, (S)-2-(4-(6-(2,4-difluorobenzyloxy)-5-fluoropyridin-2-yl)-3-fluorobenzyl)-3-(oxetan-2-ylmethyl)-3H-imidazo[4,5-b]pyridine-5-carboxylic acid], the “β-arrestin internalization Bmax (POC)” value in assay [1] was found to be 30.2 ± 6.53 POC. Further, the EC50 in assay [2] was < 15 nM. Besides, in assay [3], the Emax amounted to 41.7 ± 3.45%.

Take `O=C(O)c1ccc2nc(Cc3ccc(-c4cccc(OCc5ccc(Cl)cc5F)n4)c(F)c3F)n(C[C@@H]3CCO3)c2c1` [Compound 262, (S)-2-(4-(6-(4-chloro-2-fluorobenzyloxy)pyridin-2-yl)-2,3-difluorobenzyl)-1-(oxetan-2-ylmethyl)-1H-benzo[d]imidazole-6-carboxylic acid]: the “β-arrestin internalization Bmax (POC)” value in assay [1] was determined as 25.4 ± 1.39 POC. For the same molecule, in assay [2], the EC50 was < 15 nM. For the same molecule, the Emax in assay [3] came out at 47.3 ± 4.55%.

Regarding `O=C(O)c1ccc2nc(Cc3ccc(-c4nc(OCc5ccc(Cl)cc5F)c(F)cc4F)c(F)c3)n(C[C@@H]3CCO3)c2c1` [Compound 77, (S)-2-(4-(6-((4-chloro-2-fluorobenzyl)oxy)-3,5-difluoropyridin-2-yl)-3-fluorobenzyl)-1-(oxetan-2-ylmethyl)-1H-benzo[d]imidazole-6-carboxylic acid], the “β-arrestin internalization Bmax (POC)” value in assay [1] is listed as 22.5 POC. The EC50 in assay [2] was < 15 nM. In addition, in assay [3], the Emax is 39.4%.

`O=C(O)c1ccc2nc(Cc3ccc(-c4nccc(OCc5ccc(Cl)cc5F)n4)cc3F)n(C[C@@H]3CCO3)c2c1` [Compound 86, (S)-2-(4-(4-((4-chloro-2-fluorobenzyl)oxy)pyrimidin-2-yl)-2-fluorobenzyl)-1-(oxetan-2-ylmethyl)-1H-benzo[d]imidazole-6-carboxylic acid]: the “β-arrestin internalization Bmax (POC)” value in assay [1] stood at 41.8 POC. In addition, the EC50 in assay [2] is < 15 nM. In addition, the Emax in assay [3] worked out at 33.5%.

With `O=C(O)c1ccc2nc(Cc3ccc(-c4cc(OCc5ccc(Cl)cc5F)ccc4F)c(F)c3)n(C[C@@H]3CCO3)c2c1` [Compound 79, (S)-2-((5′-((4-chloro-2-fluorobenzyl)oxy)-2,2′-difluoro-[1,1′-biphenyl]-4-yl)methyl)-1-(oxetan-2-ylmethyl)-1H-benzo[d]imidazole-6-carboxylic acid], in assay [1], the “β-arrestin internalization Bmax (POC)” value was determined as 9.25 POC. Besides, the EC50 in assay [2] is 15 to 150 nM. In addition, in assay [3], the Emax came out at 19.7%.

Turning to `O=C(O)c1ccc2nc(Cc3ccc(-c4ccnc(OCc5ccc(Cl)cc5F)n4)cc3F)n(C[C@@H]3CCO3)c2c1` [Compound 87, (S)-2-(4-(2-((4-chloro-2-fluorobenzyl)oxy)pyrimidin-4-yl)-2-fluorobenzyl)-1-(oxetan-2-ylmethyl)-1H-benzo[d]imidazole-6-carboxylic acid], the “β-arrestin internalization Bmax (POC)” value in assay [1] was determined as 23.9 POC. For the same molecule, the EC50 in assay [2] is < 15 nM. In addition, the Emax in assay [3] turned out to be 33.1%.

Regarding `O=C(O)c1ccc2nc(CN3CC=C(c4csc(OCc5ccc(Cl)cc5F)n4)CC3)n(C[C@@H]3CCO3)c2c1` [Compound 247, (S)-2-((4-(2-((4-chloro-2-fluorobenzyl)oxy)thiazol-4-yl)-3,6-dihydropyridin-1(2H)-yl)methyl)-1-(oxetan-2-ylmethyl)-1H-benzo[d]imidazole-6-carboxylic acid], the “β-arrestin internalization Bmax (POC)” value in assay [1] is on record as 26.6 POC. Further, the concentration giving a half-maximal response (EC50) in assay [2] is < 15 nM.
